Assay results taken from patent US20130196406A1, “NOVEL PROTEIN-POLYMER NANOCAPSULES” (University of Connecticut, priority 2012, published 2013).

Experiments:
[1] = molecular target: T1, Hb-PAA-1k-7 nanocapsule (bovine met-hemoglobin conjugated to polyacrylic acid, synthesized at pH 7) (Bos taurus, UniProt P01966+P02070); assay: Peroxidase-like activity, Michaelis-Menten kinetics (guaiacol oxidation by H2O2, 470 nm), Hb-PAA-1k-7; assay type: biochemical; conditions: 1 μM Hb, 2.5 mM guaiacol, 1 mM H2O2
T1 construct: peroxidase-like activity with guaiacol/H2O2
Experimental: (§1) FIG. 5 provides Lineweaver-Burk plots for the peroxidase-like activity of Hb-PAA conjugates. A) Peroxidase-like activity for the 1 μM of Hb-PAA synthesized at pH 6.0. B) Peroxidase-like activity for 1 μM Hb-PAA synthesized at pH 7.0. All experiments were done in the presence of 1 μM Hb, 2.5 mM guaiacol and 1 mM H2O2.
(§2) Polyacrylic acid (PAA) (8000 Da) was purchased from sigma chemical Co (St. Louis, Mo.). The PAA stock solution was made by mixing 1.32 gm of 45% (w/w) PAA in 3 ml of 20 mM Na2HPO4 buffer, pH 7.2, and was further used for synthesis. Met-hemoglobin (Hb, bovine) was purchased from Sigma. Protein solutions were prepared in the respective buffers used for synthesis and the concentrations determined from the Soret absorbance of Hb using extinction co-efficient 303,956 M^−1 cm^−1 at 407 nm. […]
(§3) Hb activity was monitored by the addition of guaiacol (substrate) and hydrogen peroxide (oxidant), and formation of the colored product has been monitored by its absorption at 470 nm as a function of time (FIG. 4). […]
(§4) Hb activity was followed by literature method, with minor modifications. Product absorbance at 470 nm was monitored as a function time of after the addition of H2O2 (1 mM) to Hb (5 μM) and o-methoxyphenol (2.5 mM). Initial rates and Michaelis-Menten parameters were calculated from the kinetic data by following standard protocols. […]

[2] = molecular target: T2, Hb-PAA-1k-6 nanocapsule (bovine met-hemoglobin conjugated to polyacrylic acid, synthesized at pH 6) (Bos taurus, UniProt P01966+P02070); assay: Peroxidase-like activity, Michaelis-Menten kinetics (guaiacol oxidation by H2O2, 470 nm), Hb-PAA-1k-6; assay type: biochemical; conditions: 1 μM Hb, 2.5 mM guaiacol, 1 mM H2O2
T2 construct: peroxidase-like activity with guaiacol/H2O2
Experimental: as §1, §2, §3, §4

T1 sequence (P01966 whole entry): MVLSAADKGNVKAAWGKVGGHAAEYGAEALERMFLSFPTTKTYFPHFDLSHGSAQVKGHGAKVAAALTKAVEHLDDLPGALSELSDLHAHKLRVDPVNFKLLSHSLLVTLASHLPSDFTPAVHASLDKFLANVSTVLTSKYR
T1 sequence (P02070 whole entry): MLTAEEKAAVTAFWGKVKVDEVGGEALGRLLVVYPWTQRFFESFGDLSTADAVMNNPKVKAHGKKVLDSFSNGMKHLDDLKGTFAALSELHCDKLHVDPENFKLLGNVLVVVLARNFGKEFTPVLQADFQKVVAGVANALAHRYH
T2 sequence (P01966 whole entry): as the sequence (P01966 whole entry) above
T2 sequence (P02070 whole entry): as the sequence (P02070 whole entry) above

Vmax [1]: 0.0025 mM/s | Vmax [2]: 0.0028 mM/s
Compound: COc1ccccc1O [guaiacol, o-methoxyphenol]
